{
  "source": "paper PMC11928584",
  "about": "“H105A peptide eye drops promote photoreceptor survival in murine and human models of retinal degeneration” (Communications Medicine, 2025)",
  "key": {"[1]": {"system": "retinal function of rd10 mice", "test": "Electroretinogram (scotopic a- and b-wave), rd10 mice", "assay_type": "in vivo, mouse", "method": "Electroretinogram (ERG) for rd10 and rd10/Serpinf1^-/- mice were dark-adapted overnight and recorded in both eyes of each animal using an Espion E2 system with ColorDome (Diagnosys LLC) with a heated surface. Briefly, pupils were dilated with 1% tropicamide (Akorn, NDC: 17478-101-12) for 10 min and mice were anesthetized with intraperitoneal injection of Zetamine™ (Ketamine hydrochloride injection, USP; VetOne, NDC 13985-584-10) at 92.5 mg/kg, and AnaSed® (xylazine injection, Akorn Pharmaceuticals, NDC 59399-110-20) at 5.5 mg/kg. Mice were placed on the heated surface and electrodes were placed in the mouth and a subdermal platinum needle electrode was placed in the back of the mouse to serve as ground. Responses were elicited with increasing light impulses with intensity from 0.0001 to 10 cd-seconds per meter squared (cd.s/m^2). Amplitudes for a-wave were measured from stimulus to the trough of the a-wave and b-wave amplitudes were measured from a-wave to b-wave trough or peak. The values from the a and b waves for both eyes were exported to Microsoft Excel to obtained amplitude values for each mouse.\nFig. 5 Effect of daily eyedrops of PEDF peptides on ERG a-wave and b-wave retinal function. a Illustration of the experimental timeline of peptide application. RE and LE refer to the right and left eyes, respectively. Representative ERG waveforms for rd10 (b) and rd10/Serpinf1^-/- (c) mice at P21 in response to a light flash (1 cd.s/m²). Amplitude (y-axis) is plotted against time in milliseconds (ms, x-axis). Treatments are indicated to the right of each plot and are color coded, with control wild type C57BL/6 J mice without peptide treatment shown in blue. A-wave and b-wave are indicated by arrows. Photoreceptor a-wave amplitudes. Averages of photoreceptor a-wave amplitudes for rd10 (d) and rd10/Serpinf1^-/- (e) mice as a function of light intensity (cd/s.m², x-axis). Responses of animals treated with 17-mer are shown in green, H105A in black, and vehicle (HBSS) in red. Wildtype responses are shown in blue. Bipolar cell b-wave amplitudes. Averages of bipolar cell b-wave amplitudes for rd10 (f) and rd10/Serpinf1^-/- (g) mice as a function of light intensity (cd/s.m², x-axis), with treatments as indicated in panels. The number of mice evaluated for the data shown in Panels d-g was five (n = 5) for each rd10, rd10/Serpinf1^-/- and wild type. Each data point represents the average ± SD of each genotype, analyzed by ANOVA with Dunnett’s multiple comparisons. Statistical significance between H105A and vehicle is indicated by ##p ≤ 0.01, ###p ≤ 0.001, ####p ≤ 0.0001, and between H105A and 17-mer by **p ≤ 0.01, ***p ≤ 0.001, ****p ≤ 0.0001."}, "[2]": {"test": "Localization of H105A in retina by anti-H105A immunofluorescence", "assay_type": "in vivo", "settings": "RhoP23H/+ mice, daily eye drops P14-P19, anti-H105A immunofluorescence", "method": "To detect the transduced H105A peptide, we used a custom-made monoclonal recombinant Fab antibody raised against H105A (Bio-Rad AbD Serotec GmbH, Puchheim, Germany). The custom-made antibodies were produced by HuCAL® technology with a FLAG-tag for detection. […] Cells were maintained in DMEM 4.5 g/l (Thermo Fisher Scientific, cat. 11960), supplemented with 10% fetal bovine serum (FBS), 100 U/ml penicillin and 100 µg/ml streptomycin (Thermo Fisher Scientific, cat. 15140148) in 5% CO2 and at 37 °C. […] The specificity of the custom antibody to the H105A peptide was assessed by pre-incubation with 400 µM H105A peptide at 25 °C for 1 h before using it for immunodetection. […]\nDaily eye-drop-delivered H105A between P14 and P19 penetrated the retina, reached the photoreceptors, and w a s detected throughout the retina, mostly in the IS/OS ( c). […]\n(g-i) Negative controls for immunostaining. No staining was detected in untreated Rho P23H/+ retinas at P 19 (g), in sections where the antibody was pre-incubated with 400 µM H105A peptide for one hour (Panel h), or in sections without the primary antibody (i). […]"}, "[3]": {"system": "photoreceptors of RhoP23H/+ mice", "test": "ONL thickness (DAPI sections, spider plot), RhoP23H/+ mice", "assay_type": "in vivo, mouse", "settings": "daily eye drops 1 mg/ml P14-P19, P19, ventral retina", "procedure": "After embedding in paraffin, 14 μm sections were collected. […] Cone photoreceptors were labeled with anti-Opsin Blue (Merck, cat. AB5407) and anti-Opsin Red/Green (Merck, cat. AB5405). […] For nuclear staining, 0.1 μg/ml DAPI was used. Slides were mounted with Mowiol 4–88 (Merck) and images acquired with a Zeiss Axio Imager A2 fluorescence microscope. To count TUNEL positive cells the RETINA Analysis Tool kit for ImageJ was used[37].\nTo generate spider plots, the ONL thickness was measured from images passing through the optic nerve (ON) acquired with light microscopy of the retina sections stained with H&E or images of retina sections stained with DAPI with a dorsal-ventral orientation. The ONL thickness in the entire retina sections was measured at 5 different positions from both sides of the ON using ImageJ[28]. Alternatively, for DAPI stained images, a customed macro implemented in ImageJ was used to select only the ONL.\nFig. 6 Effects of eye drops containing H105A peptide in the photoreceptors of Rho^P23H/+ mice. a Scheme of experimental design. Daily peptide eye drops (5 µl of 1 mg/ml peptide) were applied to mice starting at P14 until P19 when immunofluorescence of retinal cross sections was performed. […] Histograms show quantification of immunofluorescence intensity for BAX and BCL2 markers. Five retinas per group were analyzed, with two sections per retina. […]"}, "[4]": {"settings": "eye drops every other day P15-P23, ERG at P25"}},
  "note": "Where a SMILES comes first, the peptide text is derived from it.",
  "data": [
    {"smiles": "CC[C@H](C)[C@H](NC(=O)[C@H](CC(C)C)NC(=O)[C@H](CC(=O)O)NC(=O)[C@H](Cc1ccc(O)cc1)NC(=O)[C@H](Cc1ccc(O)cc1)NC(=O)[C@H](CC(C)C)NC(=O)[C@H](C)NC(=O)[C@H](CCCNC(=N)N)NC(=O)[C@H](C)NC(=O)[C@@H](NC(=O)[C@@H](NC(=O)[C@H](CO)NC(=O)[C@H](CCC(=O)O)NC(=O)[C@@H](NC(=O)[C@H](CCCNC(=N)N)NC(=O)[C@@H](N)CCC(N)=O)[C@@H](C)O)[C@@H](C)CC)[C@@H](C)CC)C(=O)N[C@@H](CO)C(=O)O", "note": "[H105A] (H-QRTESIIARALYYDLIS-OH)", "values": [
      {"measurement": "ERG response to low intensity light", "setting": "[1]; daily eye drops 5 µl of 1 mg/ml P15-P24, ERG at P25", "value": "improved rod photoreceptor function"},
      {"measurement": "ERG a-wave", "setting": "[1]; [4]", "value": "an improvement in a-wave of ERG"},
      {"measurement": "ERG b-wave", "setting": "[1]; [4]", "value": "no significant effect"},
      {"measurement": "function of rd10 photoreceptors", "setting": "[1]; eye drops every other day, endpoint extended to P25", "value": "improved the function of rd10 photoreceptors"},
      {"measurement": "localization of H105A in retina", "setting": "[2]", "value": "reaching the photoreceptors"},
      {"measurement": "ONL thickness", "setting": "[3]", "value": "preservation of ONL thickness"}
    ]}
  ]
}
